Test results reported in patent publication US20090170880A1, “Methods and Means for the Treatment of Cancer” (priority 2007, published 2009).
One block for each molecule: values may come before it.

Experiments:
[1] = target: T1, murine Bcrp1 (Mus musculus, UniProt Q7TMS5); assay: Transwell transport of temozolomide, MDCKII-Bcrp1 cells, without or with inhibitors; format: in vitro ADME; settings: MDCKII-Bcrp1 cells
T1 construct: expressed in transfected cells; host or cells: MDCKII (canine kidney) cells transduced with murine Bcrp1
T1 sequence (Q7TMS5 1-657): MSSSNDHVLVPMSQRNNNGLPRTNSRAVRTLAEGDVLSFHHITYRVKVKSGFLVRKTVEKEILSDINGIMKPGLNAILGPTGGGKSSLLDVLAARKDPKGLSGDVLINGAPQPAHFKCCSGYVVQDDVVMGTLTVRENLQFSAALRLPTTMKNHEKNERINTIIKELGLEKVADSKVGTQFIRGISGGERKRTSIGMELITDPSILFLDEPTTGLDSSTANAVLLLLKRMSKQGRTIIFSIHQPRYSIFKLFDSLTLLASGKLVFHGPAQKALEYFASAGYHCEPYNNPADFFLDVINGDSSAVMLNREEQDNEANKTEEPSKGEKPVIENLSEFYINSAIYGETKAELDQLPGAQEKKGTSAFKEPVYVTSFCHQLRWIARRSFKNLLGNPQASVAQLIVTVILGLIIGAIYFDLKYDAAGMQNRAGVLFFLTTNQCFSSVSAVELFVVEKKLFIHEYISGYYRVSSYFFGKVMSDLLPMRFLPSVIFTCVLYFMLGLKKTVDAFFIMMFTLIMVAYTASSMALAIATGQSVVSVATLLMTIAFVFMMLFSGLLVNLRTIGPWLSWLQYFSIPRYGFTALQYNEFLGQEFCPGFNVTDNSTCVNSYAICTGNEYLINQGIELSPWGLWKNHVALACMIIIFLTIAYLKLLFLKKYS
Procedure: The parental LLC pig-kidney (PK1) cell line and sublines transduced with murine Mdr1a or human MDR1 (12) and the parental Madine Darby Canine Kidney (MDCK) and murine Bcrp1 or human BCRP transduced sublines (13) were seeded on Transwell microporous polycarbonate membrane filters (3.0 μm pore size, 24 mm diameter; Costar Corning, N.Y., USA) at a density of 1×10^6 cells per well in 2 ml of MEM medium (Invitrogen Corporation, Carlsbad, Calif.) containing 10% v/v fetal calf serum. Cells were incubated at 37° C. in 5% CO2 for three days with one medium replacement after the first day. Two hours before the start of the experiment the medium in both compartments was replaced with 2 ml of OptiMEM medium (InVitrogen Corp.). At the start of the experiment the medium in the apical or basolateral compartment was replaced with 2 ml of freshly prepared OptiMEM medium containing 40 μg/ml of temozolomide. […] Zosuquidar (LY335979, 5 μM) was always added to the medium when doing experiments with MDCK cell lines to inhibit endogenous canine P-gp. Samples of 50 μl were collected every 30 min, for up to 2 h after start of the experiment. Because temozolomide is instable in medium at 37° C., we replaced one ml of the donor compartment by a freshly prepared aliquot every 30 min. [^3H]-inulin (approximately 7 kBq per well) was added to the same compartment as temozolomide to check the integrity of the cell layer. Wells showing a leakage of more than 1.5% per hour were excluded.
First, we took samples every 30 min for up to 2 h instead of every hour for up to 4 h. Secondly, to maintain adequate temozolomide levels at the donor side throughout the experiment we replaced 1 ml of the 2 ml of medium at the donor side of the transwell at each sampling time by 1 ml of a freshly prepared temozolomide solution in medium.

[2] = tested on: intracranial Mel57-luc tumor xenografts; assay: Efficacy against intracranial Mel57-luc tumor xenografts; format: in vivo, nude mice; settings: wild-type nude mice, elacridar oral 100 mg/kg/day×5 20-30 min before temozolomide oral 100 mg/kg/day×5
Procedure: Intracranial Mel57-luc (luciferase transfected subline) tumor xenografts in wild-type nude mice (WT) and mdr1ab knockout nude mice (MDR) were established according to the protocol below (see Kemper et al, Eur J Cancer 42:3294-3303, 2006).
The Mel57 cell line (University Medical Centre, Nijmegen, The Netherlands) is a human melanoma cell line and was cultured in MEM (Life Technologies Inc., Breda, The Netherlands) supplemented with 10% foetal calf serum, non-essential amino acids, streptomycin, penicillin and sodium pyruvate (all Life Technologies), and incubated at 37° C. and 5% CO2 in humidified air. The cell line was further transfected by standard protocols with lipofectamine using a pBS vector containing a β-actin driven luciferase gene coupled via an internal ribosome […] to GFP. After expansion, GFP bright cells were sorted to single cells by FACS, expanded and sublines tested for luciferase expression by an in vitro bioluminescence assay (Promega, Benelux BV, Leiden, The Netherlands). Three to five sublines showing the highest luminescence activity were tested in vivo for tumour take and intracranial growth behaviour. To retrieve tumour cells for injection, the cell culture was trypsinised (trypsin 0.05%; EDTA 0.02%, Life Technologies), washed two times with Hanks Balanced Saline Solution (HBSS, Life Technologies Inc.), counted and resuspended in an appropriate volume of HBSS. The single cell suspension was kept on ice until injection. […]
Mel57-luc cells (100,000 cells/2 μl) were injected stereotactically in the brain as described in detail in Kemper et al^14. […] The amount of bioluminescence in each animal was calculated relative to the first measurement when therapy was initiated (arbitrarily set at 100%) and was log converted prior to data analysis. Tumor volume was measured by bioluminescence activity (see Kemper et al, Eur J Cancer 42:3294-3303, 2006).

[3] = tested on: P-gp and BCRP; assay: Temozolomide brain and plasma levels at 2 h with or without oral inhibitor; format: in vivo; settings: wild-type mice, inhibitor 100 mg/kg oral, 2 h after temozolomide
Procedure: The mice were anesthetized with metoxyflurane and blood samples were obtained by cardiac puncture and collected on ice in tubes containing potassium EDTA as anticoagulant. […] Immediately after cardiac puncture the mice were killed by cervical dislocation and the brains were dissected and placed on ice. Within 60 min they were weighed and homogenized in 3 ml of ice-cold 1% of BSA in 0.05 M phosphate buffer adjusted to pH 2 and stored at −20° C. until further analysis. […] The brain-to-plasma ratio was calculated for each individual animal. The two-sided unpaired Student's t-test was used for statistical analysis of AUC values. Bonferroni's test for multiple comparisons was calculated using SPSS (v12.0.1; […]

[4] = tested on: P-gp; assay: Transwell control experiments with radioactively labeled P-gp and BCRP substrates; format: in vitro ADME; settings: inhibitor 20 μM, radiolabeled substrates, results not shown
Procedure: Similar experiments were conducted in the parental canine MDCK cells and its transduced murine Bcrp1 or human BCRP sublines. […] Together with these experiments we ran control experiments using well-established P-gp and BCRP substrates that were available to us as radioactively labeled compounds (^14C-trabectedin and ^14C-Indisulan, or ^14C-topotecan). […] Moreover, the integrity of all monolayers was checked using ^3H-inuline as marker compound. Wells showing more than 1.5% translocation of inuline per 30 min were considered to be leaky and excluded from the analysis.

[5] = target: T2, P-gp (Mus musculus, UniProt P21447); settings: Mdr1ab knockout mice; cited from earlier work
T2 construct: host or cells: mice (Mdr1ab knockout versus wild type)
T2 sequence (P21447 whole entry): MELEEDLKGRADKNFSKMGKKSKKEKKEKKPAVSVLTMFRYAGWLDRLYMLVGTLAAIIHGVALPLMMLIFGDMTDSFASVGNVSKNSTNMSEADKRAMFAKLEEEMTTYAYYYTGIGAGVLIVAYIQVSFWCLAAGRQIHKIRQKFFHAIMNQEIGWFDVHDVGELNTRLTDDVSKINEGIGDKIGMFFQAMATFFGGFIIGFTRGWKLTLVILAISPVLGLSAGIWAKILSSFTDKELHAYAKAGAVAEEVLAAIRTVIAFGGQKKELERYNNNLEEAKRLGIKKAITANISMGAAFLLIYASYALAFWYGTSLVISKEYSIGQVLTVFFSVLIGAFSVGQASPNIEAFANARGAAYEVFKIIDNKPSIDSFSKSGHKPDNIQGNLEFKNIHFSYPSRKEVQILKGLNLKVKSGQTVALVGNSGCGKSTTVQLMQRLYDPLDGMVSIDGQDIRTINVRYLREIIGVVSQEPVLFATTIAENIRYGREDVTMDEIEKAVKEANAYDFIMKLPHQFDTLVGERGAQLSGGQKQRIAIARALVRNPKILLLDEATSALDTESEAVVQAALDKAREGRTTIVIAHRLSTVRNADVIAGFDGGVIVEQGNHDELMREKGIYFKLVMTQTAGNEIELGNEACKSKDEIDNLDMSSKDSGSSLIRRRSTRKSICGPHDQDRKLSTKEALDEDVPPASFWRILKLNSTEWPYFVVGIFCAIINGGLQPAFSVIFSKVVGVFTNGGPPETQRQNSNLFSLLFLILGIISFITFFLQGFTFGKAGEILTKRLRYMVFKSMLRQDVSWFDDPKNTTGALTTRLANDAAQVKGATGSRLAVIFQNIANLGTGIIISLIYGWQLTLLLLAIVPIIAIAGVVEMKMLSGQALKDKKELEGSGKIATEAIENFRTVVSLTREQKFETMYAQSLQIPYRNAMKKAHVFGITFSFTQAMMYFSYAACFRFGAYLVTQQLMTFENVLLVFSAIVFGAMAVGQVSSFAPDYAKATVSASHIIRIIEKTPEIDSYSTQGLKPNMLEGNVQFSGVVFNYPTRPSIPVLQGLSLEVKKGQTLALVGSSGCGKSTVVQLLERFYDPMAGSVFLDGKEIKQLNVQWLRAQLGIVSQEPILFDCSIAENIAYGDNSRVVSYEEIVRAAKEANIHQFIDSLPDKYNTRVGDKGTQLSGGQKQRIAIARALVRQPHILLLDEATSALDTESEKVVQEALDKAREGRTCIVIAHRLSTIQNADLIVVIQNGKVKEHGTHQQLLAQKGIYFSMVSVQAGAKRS

[6] = in vivo; cited from earlier work

effect on Bcrp1 mediated transport of temozolomide ([1]; inhibitor 5 μM): (almost) completely abrogated
Structure (SMILES): COc1cc2c(cc1OC)CN(CCc1ccc(NC(=O)c3cccc4c(=O)c5cccc(OC)c5[nH]c34)cc1)CC2 [elacridar]
efficacy of temozolomide with elacridar versus temozolomide alone [2]: more effective than temozolomide alone

Structure (SMILES): COc1cc2ncnc(Nc3ccc(F)c(Cl)c3)c2cc1OCCCN1CCOCC1 [gefitinib]
effect on temozolomide plasma level [3]: significantly increased
effect on Bcrp1 mediated transport of temozolomide ([1]; inhibitor 10 μM): (almost) completely abrogated
inhibition of P-gp mediated transport [4]: sufficient

Structure (SMILES): CC(=O)O[C@H]1C(=O)[C@@]2(C)[C@H]([C@H](OC(=O)c3ccccc3)[C@]3(O)C[C@H](OC(=O)[C@H](O)[C@@H](NC(=O)c4ccccc4)c4ccccc4)C(C)=C1C3(C)C)[C@]1(OC(C)=O)CO[C@@H]1C[C@@H]2O [paclitaxel]
brain-to-plasma ratio relative to wild-type controls [5]: more than 5 fold

effect on Bcrp1 mediated transport of temozolomide ([1]; inhibitor 10 μM): (almost) completely abrogated
Structure (SMILES): C#Cc1cccc(Nc2ncnc3cc(OCCOC)c(OCCOC)cc23)c1 [erlotinib]

effect on Bcrp1 mediated transport of temozolomide ([1]; inhibitor 50 μM): not sufficient
Structure (SMILES): CO[C@@H]1[C@@H](OC(N)=O)[C@@H](O)[C@H](Oc2ccc3c(O)c(NC(=O)c4ccc(O)c(CC=C(C)C)c4)c(=O)oc3c2C)OC1(C)C [novobiocin]

Structure (SMILES): Cc1ccc(NC(=O)c2ccc(CN3CCN(C)CC3)cc2)cc1Nc1nccc(-c2cccnc2)n1 [imatinib]
oral bioavailability [6]: > 90%
